From PubChem BioAssay AID1996 come the findings set out here.

The structures appear in SMILES notation. In brackets after ≈: the same amount, converted by molar mass. A value given as a limit tells only on which side of the number the result lay.

The conditions of this data set: buffer; pH 7.4; 200.0 µM.
The term kinetic solubility denotes the concentration staying in solution when a stock, usually in DMSO, is diluted into the medium. Compound `Cc1ccc(C)c(CN2C(=O)COc3ccccc32)c1` returned a kinetic solubility of 2.8 µg/mL (≈ 10.5 µM).
In turn, `CCCc1cc(=O)[nH]c(SCC(=O)N2CCOCC2)n1` yielded a kinetic solubility above 44.6 µg/mL.
`Fc1ccc(N=c2ssnc2Cl)c(F)c1` displayed a kinetic solubility of 7.5 µg/mL (≈ 28.3 µM).
As for `O=C(CCc1ccccc1)N1CCCC(Nc2ccc(F)cc2)C1` (configuration not stated), the figure is 41.4 µg/mL (≈ 127 µM).
For `Cl.NC(CCC(=O)O)C12CC3CC(CC(C3)C1)C2` (configuration not stated) the value was above 41.1 µg/mL; for `CCn1c(SCC(=O)Nc2ccccc2OC)nc(O)cc1=O`, 47.7 µg/mL (≈ 142 µM); for `COc1cccc(C(=O)NCC2(c3ccccc3)CCCC2)c1OC`, 15.3 µg/mL (≈ 45.1 µM).
For `COc1nc(C)cc(C)c1S(=O)(=O)c1ccc(Cl)cc1` the value was 1.7 µg/mL (≈ 5.45 µM); for `O=C1c2ccccc2NC(c2ccccc2O)N1c1ccc(F)cc1` (configuration not stated), 5.5 µg/mL (≈ 16.4 µM); for `N#Cc1ccccc1S(=O)(=O)Nc1ccc2c(c1)C(=O)OC2`, 43.4 µg/mL (≈ 138 µM).
In the case of `Cc1ccccc1OCC(=O)Nc1ccc2oc(=O)ccc2c1`, the solubility (kinetic) was 1.1 µg/mL (≈ 3.56 µM).
As for `O=C(OCC(=O)N1CCCCC1)c1ccc2ccccc2n1`, the figure is above 44.7 µg/mL; as for `COc1ccc(OC)c(CNC(=O)C2CCC(=O)N2C(C)C)c1` (configuration not stated), above 48.1 µg/mL; as for `COc1ccc(CCNc2nc(C)cc(C)c2C#N)cc1OC`, 32.7 µg/mL (≈ 105 µM).
For the compound `CC1CCN(C(=O)CCNC(=O)c2ccccc2)CC1`, the solubility (kinetic) stood at 37.1 µg/mL (≈ 135 µM).
`Cc1[nH]c2ccccc2c1C(=O)COC(=O)C1CCC1`: the kinetic solubility was determined as 24.1 µg/mL (≈ 88.8 µM).
As to `O=[N+]([O-])c1cc(F)c(N2CCCC2)cc1Br`, the solubility (kinetic) was 1.6 µg/mL (≈ 5.53 µM).
For `S=C1NCN(Cc2cccnc2)CN1c1cccc2ccccc12` the value was above 50.2 µg/mL; for `O=S(=O)(Nc1cccc2ccccc12)c1cccs1`, 5.1 µg/mL (≈ 17.6 µM).
`COc1ccc(O)c(/C=N/N2CCOCC2)c1`: the kinetic solubility is above 35.4 µg/mL.
For `Cc1c(-c2ccc(Br)cc2)[n+](=O)c2c(n1[O-])CCCCC2` the value was above 52.4 µg/mL.
The compound `Cc1cccc(CSCc2ccc(C(=O)NCC3CCCO3)o2)c1` (configuration not stated) gave a solubility (kinetic) of 46.6 µg/mL (≈ 135 µM).
`CCOC(=O)CNC(=O)Cc1ccc(Cl)cc1` registered a solubility (kinetic) above 38.4 µg/mL.
`Cc1cc(C)c2c(CN3CCCCC3C)cc(=O)oc2c1.Cl` (configuration not stated) had a kinetic solubility of 2 µg/mL.
For the compound `CCN(c1ccccc1)S(=O)(=O)c1ccc(C(=O)Nc2ccccc2OC)cc1`, the solubility (kinetic) was found to be 3.7 µg/mL (≈ 9.01 µM).
For `O=C(COc1ccccc1)NCC(=O)N1CCCCCC1` the value was above 43.6 µg/mL; for `COc1cccc(NC(=O)c2ccccc2NC(=O)c2ccncc2)c1`, 29.1 µg/mL (≈ 83.8 µM).
As for `CCC(C(=O)Nc1ccccn1)c1ccccc1` (configuration not stated), the figure is above 36 µg/mL; as for `CSc1nc2ccc(NC(=O)c3ccc(=O)[nH]c3)cc2s1`, 16.1 µg/mL (≈ 50.7 µM).
For `CC(=O)Nc1ccc(N2CCN(c3ccc(C(F)(F)F)cn3)CC2)nc1` the value was 0.8 µg/mL (≈ 2.19 µM); for `COc1ccc(C(=O)NC(=O)COC(=O)c2ccc(C)o2)cc1`, 7 µg/mL (≈ 22.1 µM).
Consider `CN(CC(=O)Nc1ccc(F)cc1)C(=O)Cn1cnc2ccc([N+](=O)[O-])cc2c1=O`, for which the kinetic solubility was 5.6 µg/mL (≈ 13.5 µM).
`O=C1NC(=Nc2ccccc2)S/C1=C/c1cccnc1` gave a kinetic solubility of 1.2 µg/mL (≈ 4.27 µM).
For `NC(=O)CSc1nc(-c2ccccc2)nc2c1CCCC2` the value was 0.5 µg/mL (≈ 1.67 µM).
As for `COc1ccc(CCN2C(=O)CSC2=S)cc1OC`, the figure is 6.1 µg/mL (≈ 20.5 µM).
For `O=C(c1ccc(Cl)s1)N1CCN(c2ncccn2)CC1` the value was above 46.3 µg/mL; for `O=C(COC(=O)Cc1c(F)cccc1Cl)Nc1ccc2[nH]c(=O)[nH]c2c1`, above 56.7 µg/mL; for `Cc1ccc(C(=O)c2coc3ccc(O)c(CN(C)C)c23)cc1.Cl`, 48 µg/mL.
Consider `CC(=O)Nc1c(C(=O)Nc2ccc3c(c2)OCO3)oc2ccccc12`, for which the solubility (kinetic) was determined as 3.2 µg/mL (≈ 9.46 µM).
As for `Cc1ccc(NC(=O)CC(C)c2ccccc2)cc1S(=O)(=O)N1CCOCC1` (configuration not stated), the figure is 47.5 µg/mL (≈ 118 µM).
For `CCOC(=O)C1CCN(CCC(=O)Nc2cc(C)cc(C)c2)CC1` the value was above 49.9 µg/mL.
As for `CCN(CC(=O)NCc1cccs1)C(=O)c1ccc(-c2ccc(F)cc2)o1`, the figure is 51.8 µg/mL (≈ 134 µM).
For `Cc1ccc(C(=O)N[C@H](C(=O)Nc2ccc(F)cc2)C(C)C)cc1`, the kinetic solubility amounted to 3 µg/mL (≈ 9.14 µM).
For `Cc1ccc(C(=O)N/C(=C\c2cccnc2)C(=O)N2CCCC2)cc1` the value was above 50.3 µg/mL; for `CS(=O)(=O)N(CC(=O)N1CCOCC1)c1ccccc1Br`, above 56.6 µg/mL.
For `O=C(NCc1cccnc1)c1cccs1` the value was above 32.7 µg/mL; for `O=[N+]([O-])c1ccccc1/C=C/CN1CCC(O)CC1`, 29.2 µg/mL (≈ 111 µM).
As to `O=C(/C=C/c1ccc2c(c1)OCO2)c1ccccn1`, the solubility (kinetic) was 4.2 µg/mL (≈ 16.6 µM).
As for `O=C(NNC(=S)Nc1ccccc1C(F)(F)F)c1cccnc1`, the figure is above 51 µg/mL.
In the case of `O=c1cc(CO)[nH]cc1OCc1ccccc1`, the kinetic solubility was found to be 34.4 µg/mL (≈ 149 µM).
As for `Cc1cc(C)c(NC(=O)Cn2c([N+](=O)[O-])cnc2C)c(C)c1`, the figure is 4.1 µg/mL (≈ 13.6 µM); as for `Cc1cccc(N2C(=O)C3CCCN3C2=S)c1` (configuration not stated), 36.1 µg/mL (≈ 147 µM).
For the compound `O=C(CN1C(=O)NC2(CCCC2)C1=O)Nc1cc(S(=O)(=O)N2CCCCC2)ccc1Cl`, the solubility (kinetic) was 65.8 µg/mL (≈ 140 µM).
As for `CN1C(=O)NC(c2ccccc2[N+](=O)[O-])C2=C1CC(C)(C)CC2=O` (configuration not stated), the figure is 39.4 µg/mL (≈ 120 µM); as for `O=C1NC(=O)/C(=C\c2ccc(OCc3ccccc3)cc2)S1`, below 0.7 µg/mL.
On to `COc1ccc(CN2C(=O)C(C)Oc3ccccc32)cc1` (configuration not stated), for which the kinetic solubility was 23.4 µg/mL (≈ 82.6 µM).
For `O=C(COC(=O)c1cc(Cl)ccc1O)Nc1cc(C(F)(F)F)ccc1N1CCOCC1` the value was 3.5 µg/mL (≈ 7.63 µM); for `O=C(CCCNC(=O)c1ccc(Cl)cc1)NCc1ccc(F)cc1`, 4.1 µg/mL (≈ 11.8 µM); for `CC(NC(=O)c1ccccc1[N+](=O)[O-])C1CC2CCC1C2` (configuration not stated), 35.2 µg/mL (≈ 122 µM).
As for `Cc1ccc2[nH]c(CNC(=O)c3ccc(F)cc3)cc2c1`, the figure is 4.7 µg/mL (≈ 16.6 µM); as for `C=CCNC(=S)Nc1ccc(Cl)cc1F`, above 36.7 µg/mL; as for `N#Cc1ccccc1/C=C/C(=O)N1CCOCC1`, above 36.3 µg/mL.
For `Cc1cc(C(=O)N2CCc3ccccc3C2)no1` the value was above 36.3 µg/mL.
`CCn1c(NC(=O)C(C)C)c(-c2cccs2)c(=O)c2ccccc21` came in with a solubility (kinetic) above 51.1 µg/mL.
Compound `CC1Cc2ccccc2N1S(=O)(=O)c1cccc(C(=O)NCc2ccco2)c1` (configuration not stated) gave a solubility (kinetic) of 14.7 µg/mL (≈ 37.1 µM).
For `O=C(O)CCc1nc2ccccc2c(=O)[nH]1` the value was above 32.7 µg/mL; for `CC(=O)c1sc(NC(=O)c2ccccc2)nc1-c1ccccc1`, below 0.3 µg/mL.
For `C=CCn1cccc(C(=O)Nc2ccc(SC)cc2)c1=O` the value was 38.5 µg/mL (≈ 128 µM); for `COc1ccc(CNC(=O)CSCc2c(F)cccc2Cl)cc1`, 5.5 µg/mL (≈ 15.5 µM); for `O=S(=O)(c1cccc(C(F)(F)F)c1)c1ccc(O)cn1`, 41.1 µg/mL (≈ 136 µM).
As for `O=C(COC(=O)CNC(=O)c1ccccc1Cl)NC1CC1`, the figure is 37.4 µg/mL (≈ 120 µM); as for `Cc1cnc(C(=O)OCC(=O)Nc2ccccc2[N+](=O)[O-])cn1`, above 47.4 µg/mL.
In turn, `CCOC(=O)c1sc(Nc2nc(C)cc(C)n2)nc1C` yielded a kinetic solubility of 1.2 µg/mL (≈ 4.1 µM).
As for `O=C(O)CN1C(=O)NC2(CCc3ccccc32)C1=O` (configuration not stated), the figure is above 39 µg/mL; as for `Cc1cc(C)nc(Nc2cc([N+](=O)[O-])ccc2C)n1.Cl`, 5.4 µg/mL; as for `Cc1cccc(Cl)c1OCCCn1ccnc1.O=C(O)C(=O)O`, 45.4 µg/mL.
Compound `O=C([O-])Cc1csc(-c2cccc(Oc3ccccc3)c2)n1.[Na+]` showed a kinetic solubility of 49.3 µg/mL.
`Cc1cc(N2CCCC2)c(F)cc1/C=C\[N+](=O)[O-]` gave a solubility (kinetic) of 0.4 µg/mL (≈ 1.6 µM).
For `Cc1ccc(NC(=O)CSc2nc(N)cc(=O)[nH]2)cc1S(=O)(=O)N1CCCCCC1` the value was 10.6 µg/mL (≈ 23.5 µM); for `O=C(c1cccc(S(=O)(=O)Nc2ccc(Br)cc2)c1)N1CCC1`, 58.9 µg/mL (≈ 149 µM).
As to `CCNC(=S)Nn1cnc2ccccc21`, the kinetic solubility was above 33 µg/mL.
For `CCc1noc(C)c1C(=O)OCC(=O)NC(=O)c1ccccc1` the value was above 47.4 µg/mL; for `O=Cc1cnc(N2CCCCC2)s1`, 27.6 µg/mL (≈ 141 µM).
The compound `O=Cc1cc([N+](=O)[O-])ccc1N1CCN(Cc2ccc3c(c2)OCO3)CC1` showed a solubility (kinetic) of 12.2 µg/mL (≈ 33 µM).
In turn, `Cc1cc(C)cc(NC(=O)CCOc2ccccc2)c1` yielded a solubility (kinetic) of 4.1 µg/mL (≈ 15.2 µM).
For `COC(=O)c1c(C)[nH]c(C(=O)/C=C/c2ccc(C)cc2)c1C` the value was 1.7 µg/mL (≈ 5.72 µM).
For `O=C(CCS(=O)(=O)c1ccccc1)OCc1ccc([N+](=O)[O-])cc1` the value was 32 µg/mL (≈ 91.6 µM); for `CCOC(=O)/C(C#N)=C\C1=C(N2CCOCC2)CC(C)(C)OC1`, above 48.1 µg/mL; for `COc1ccc(C2=NCCNC(C(F)(F)F)=C2)cc1`, above 40.5 µg/mL.
As for `Cc1cc(=O)n(CC(=O)Nc2cc(Cl)ccc2C)c(C(C)C)n1`, the figure is 40.4 µg/mL (≈ 121 µM); as for `CCN1CCN(c2ccc(NC(=O)c3cccc(S(=O)(=O)N4CCCC4)c3)cc2)CC1`, 63.2 µg/mL (≈ 143 µM); as for `COc1ccccc1-c1nc(C#N)c(N2CC(C)CC(C)C2)o1` (configuration not stated), 1.5 µg/mL (≈ 4.82 µM).
In turn, `COc1ccc(NC(=O)CSc2nc3ccccc3c(=O)n2C)cc1` displayed a solubility (kinetic) below 0.3 µg/mL.
As for `O=C(Nc1ccccc1)c1ccccc1NC(=O)[C@H]1CCCC[C@H]1C(=O)O`, the figure is above 55 µg/mL; as for `CC1CCN(C(=O)c2ccc(NC(=O)c3ccccc3)cc2)CC1`, above 48.4 µg/mL; as for `O=C(NCc1cccnc1)Nc1cccc(C(F)(F)F)c1`, above 44.3 µg/mL.
For the compound `O=C(CCNS(=O)(=O)c1ccccc1)N1CCCC1`, the kinetic solubility is above 42.4 µg/mL.
As for `CC(NC(=O)CSc1ncccc1C(=O)O)C1CC2CCC1C2` (configuration not stated), the figure is above 50.2 µg/mL; as for `CCSc1nsc(NC(=O)Nc2ccccc2F)n1`, 1.4 µg/mL (≈ 4.69 µM); as for `Cc1ccc2c(CC(=O)NC3CCS(=O)(=O)C3)coc2c1C` (configuration not stated), above 48.2 µg/mL.
For `O=C(COC(=O)/C=C/c1ccccc1Cl)NC(=O)NC1CCCC1` the value was 8.2 µg/mL (≈ 23.4 µM); for `Cn1c(=O)n(C)c2cc(S(=O)(=O)N3CCN(c4ccccc4)CC3)ccc21`, 0.3 µg/mL (≈ 0.776 µM).
